For assay [1], the system named is Mycosphaerella graminicola; Anamorph: Septoria tritici; Bayer Code SEPTTR. As to the kind of experiment: Leaf blotch of wheat, foliar fungicide treatment, one day protectant (1DP) or three day curative (3DC). It counts as in vivo, Septoria tritici on wheat plants (variety Yuma). To be noted: Zymoseptoria tritici, rating of percent disease control.
In assay [2] the test system is Cercospora beticola; Bayer Code CERCBE. The assay is described as follows: Leaf spot of sugar beets. Type of assay: in vivo, Cercospora beticola on sugar beets (variety HH-88). To be noted: 24 h, % disease control rating, one day protectant; for pest or weed control at 25 ppm: read-out: CERCBE 1 DP 25 ppm; for pest or weed control at 75 ppm: read-out: CERCBE 1 DP 75 ppm.

Assay [3] relates to Venturia inaequalis; Bayer Code VENTIN. The assay is described as follows: Apple scab. It counts as in vivo. To be noted: 24 h, % disease control rating, one day protectant; for pest or weed control at 25 ppm: read-out: VENTIN 1 DP 25 ppm; for pest or weed control at 75 ppm: read-out: VENTIN 1 DP 75 ppm.
The mark [4] stands for this setting: 24 h, one day protectant (1DP), read-out: SETTTR 1DP 25 ppm.
The mark [5] stands for this setting: 24 h, one day protectant (1DP), read-out: SEPTTR 1DP 100 ppm.
The mark [6] stands for this setting: 72 h, three day curative (3DC), read-out: SEPTTR 3DC 25 ppm.
[7] abbreviates: 72 h, three day curative (3DC), read-out: SEPTTR 3DC 100 ppm.
The mark [8] stands for this setting: 24 h, one day protectant, read-out: SETTTR 1DP 25 ppm.
Where [9] appears, read: 24 h, one day protectant, read-out: SEPTTR 1DP 100 ppm.
The mark [10] stands for this setting: 72 h, three day curative, read-out: SEPTTR 3DC 25 ppm.
Setting [11] is: 72 h, three day curative, read-out: SEPTTR 3DC 100 ppm.

The record followed here is patent publication US9204653B2, “5-fluoro pyrimidine derivatives” (DOW AGROSCIENCES LLC, priority 2008, dated 2015).

Each structure is given as a SMILES string. Like-named read-outs stand apart in the source and are kept apart here.

For the compound `CCOCNc1nc(OCc2cccs2)ncc1F` [Compound 343], the pest or weed control at 25 ppm in assay [1] (setting [4]) fell in the range of 26 to 50%; in assay [1] (setting [6]) it was 76 to 100%; in assay [2], 76 to 100%; in assay [3], 76 to 100%. The pest or weed control at 100 ppm in assay [1] (setting [5]) and in assay [1] (setting [7]) was 76 to 100% each time. Besides, the pest or weed control at 75 ppm in assay [2] was in the range of 76 to 100%; in assay [3], 51 to 75%.
For the compound `CCNN(CC)c1nc(OCc2ccc(F)cc2)ncc1F` [Compound 352], the pest or weed control at 25 ppm in assay [1] (setting [4]), in assay [1] (setting [6]), in assay [2] and in assay [3] was 0 to 25% each time. Also, the pest or weed control at 100 ppm in assay [1] (setting [5]) and in assay [1] (setting [7]) was 0 to 25% each time. For the same compound, the pest or weed control at 75 ppm in assay [2] is 0 to 25%; in assay [3], 26 to 50%.
Turning to `NN(c1nc(OCc2ccc(F)cc2)ncc1F)C1CCCCC1` [Compound 353], the pest or weed control at 25 ppm in assay [1] (setting [4]) was 0 to 25%; in assay [1] (setting [6]), 0 to 25%; in assay [2], 26 to 50%; in assay [3], 26 to 50%. For the same compound, the pest or weed control at 100 ppm in assay [1] (setting [5]) and in assay [1] (setting [7]) was 0 to 25% throughout. Besides, the pest or weed control at 75 ppm in assay [2] was in the range of 26 to 50%; in assay [3], 76 to 100%.
In the case of `CC(Oc1ncc(F)c(N)n1)c1ccc(C(F)(F)F)nc1` (centres unmarked) [Compound 356], the pest or weed control at 25 ppm in assay [1] (setting [4]) lay in the range of 26 to 50%; in assay [1] (setting [6]), 26 to 50%; in assay [2], 51 to 75%; in assay [3], 51 to 75%. In addition, the pest or weed control at 100 ppm in assay [1] (setting [5]) and in assay [1] (setting [7]) was 51 to 75% in each case. The pest or weed control at 75 ppm is 0 to 25% in assay [2] and 26 to 50% in assay [3].
Consider `Nc1nc(OCC2CCCC2)ncc1F` [Compound 370], for which the pest or weed control at 25 ppm in assay [1] (setting [4]) was 0 to 25%; in assay [1] (setting [6]), 0 to 25%; in assay [2] it was 26 to 50%; in assay [3] it was 26 to 50%. Also, the pest or weed control at 100 ppm in assay [1] (setting [5]) and in assay [1] (setting [7]) was 0 to 25% in each case. In addition, the pest or weed control at 75 ppm in assay [2] and in assay [3] was 26 to 50% throughout.
For the compound `Fc1cnc(OCc2ccccc2)nc1NNc1ccccn1` [Compound 373], the pest or weed control at 25 ppm fell in the range of 0 to 25% in assay [1] (setting [4]), 26 to 50% in assay [1] (setting [6]), 0 to 25% in assay [2] and 0 to 25% in assay [3]. Further, the pest or weed control at 100 ppm in assay [1] (setting [5]) lay in the range of 0 to 25%; in assay [1] (setting [7]) it was 51 to 75%. Also, the results for the pest or weed control at 75 ppm in assay [2] and in assay [3] were 0 to 25% and 26 to 50%, respectively.
On to `CN1CCCC1CCOc1ncc(F)c(N)n1` (centres unmarked) [Compound 384], for which the pest or weed control at 25 ppm in assay [1] (setting [4]) lay within 51 to 75%; in assay [1] (setting [6]), 26 to 50%; in assay [2], 0 to 25%; in assay [3] it was 51 to 75%. The pest or weed control at 100 ppm in assay [1] (setting [5]) and in assay [1] (setting [7]) was 76 to 100% in each case. For the same compound, the pest or weed control at 75 ppm in assay [2] and in assay [3] was 0 to 25% each time.
Regarding `O=C(OCNc1nc(OCc2ccc(F)cc2)ncc1F)C1CC1` [Compound 410], the pest or weed control at 25 ppm in assay [1] (setting [4]) is 51 to 75%; in assay [1] (setting [6]), 51 to 75%; in assay [2], 26 to 50%; in assay [3] it was 26 to 50%. Besides, the pest or weed control at 100 ppm in assay [1] (setting [5]) and in assay [1] (setting [7]) was 76 to 100% throughout. Also, the results for the pest or weed control at 75 ppm in assay [2] and in assay [3] were 26 to 50% and 51 to 75%, respectively.
Turning to `O=C(Nc1nc(OCc2ccc(F)cc2)ncc1F)c1cccc2nnsc12` [Compound 411], the pest or weed control at 25 ppm in assay [1] (setting [4]) is 76 to 100%; in assay [1] (setting [6]) it was 26 to 50%; in assay [2] it was 26 to 50%; in assay [3], 51 to 75%. Besides, the figures for the pest or weed control at 100 ppm in assay [1] (setting [5]) and in assay [1] (setting [7]) were 76 to 100% and 26 to 50%, respectively. In addition, the pest or weed control at 75 ppm lay in the range of 26 to 50% in assay [2] and 51 to 75% in assay [3].
As for `CN(C)/C=N/c1nc(OCc2cccc(C#N)c2)ncc1F` [Compound 418], the pest or weed control at 25 ppm in assay [1] (setting [4]) lay in the range of 76 to 100%; in assay [1] (setting [6]) it was 76 to 100%; in assay [2], 0 to 25%; in assay [3], 51 to 75%. Besides, the pest or weed control at 100 ppm in assay [1] (setting [5]) and in assay [1] (setting [7]) was 76 to 100% throughout. Besides, the pest or weed control at 75 ppm in assay [2] lay in the range of 0 to 25%; in assay [3] it was 51 to 75%.
As to `Cc1nc(COc2ncc(F)c(N)n2)cs1` [Compound 436], the pest or weed control at 25 ppm in assay [1] (setting [4]) fell in the range of 76 to 100%; in assay [1] (setting [6]) it was 76 to 100%; in assay [2], 51 to 75%; in assay [3], 76 to 100%. The pest or weed control at 100 ppm in assay [1] (setting [5]) and in assay [1] (setting [7]) was 76 to 100% each time. Besides, the results for the pest or weed control at 75 ppm in assay [2] and in assay [3] were 26 to 50% and 76 to 100%, respectively.
Turning to `CCOCNc1nc(OCc2ccc(OC)c(F)c2)ncc1F` [Compound 452], the pest or weed control at 25 ppm fell in the range of 76 to 100% in assay [1] (setting [4]), 76 to 100% in assay [1] (setting [6]), 0 to 25% in assay [2] and 0 to 25% in assay [3]. In addition, the pest or weed control at 100 ppm in assay [1] (setting [5]) and in assay [1] (setting [7]) was 76 to 100% each time. Further, the figures for the pest or weed control at 75 ppm in assay [2] and in assay [3] were 0 to 25% and 26 to 50%, respectively.
With `CC(C)(C)OC(=O)NOc1ncc(F)c(N)n1` [Compound 481], the pest or weed control at 25 ppm fell in the range of 76 to 100% in assay [1] (setting [4]), 76 to 100% in assay [1] (setting [6]), 26 to 50% in assay [2] and 76 to 100% in assay [3]. For the same compound, the pest or weed control at 100 ppm in assay [1] (setting [5]) and in assay [1] (setting [7]) was 76 to 100% in each case. For the same compound, the pest or weed control at 75 ppm in assay [2] and in assay [3] was 76 to 100% in each case.
As for `CC(Oc1ncc(F)c(/N=C/N(C)C)n1)c1ccc(F)cc1` (centres unmarked) [Compound 483], the pest or weed control at 25 ppm in assay [1] (setting [4]) is 76 to 100%; in assay [1] (setting [6]) it was 76 to 100%; in assay [2], 0 to 25%; in assay [3] it was 26 to 50%. Besides, the pest or weed control at 100 ppm in assay [1] (setting [5]) and in assay [1] (setting [7]) was 76 to 100% throughout. For the same compound, the pest or weed control at 75 ppm was in the range of 0 to 25% in assay [2] and 76 to 100% in assay [3].
With `COc1ncc(Oc2ncc(F)c(N)n2)cn1` [Compound 488], the pest or weed control at 25 ppm in assay [1] (setting [4]) was 0 to 25%; in assay [1] (setting [6]) it was 0 to 25%; in assay [2], 0 to 25%; in assay [3] it was 26 to 50%. Further, the pest or weed control at 100 ppm in assay [1] (setting [5]) and in assay [1] (setting [7]) was 0 to 25% throughout. Moreover, the pest or weed control at 75 ppm in assay [2] is 0 to 25%; in assay [3] it was 26 to 50%.
For `COc1ccccc1CCOc1ncc(F)c(N)n1` [Compound 524], the pest or weed control at 25 ppm was 0 to 25% in assay [1] (setting [4]), 0 to 25% in assay [1] (setting [6]), 0 to 25% in assay [2] and 51 to 75% in assay [3]. Moreover, the pest or weed control at 100 ppm in assay [1] (setting [5]) and in assay [1] (setting [7]) was 51 to 75% in each case. Moreover, the pest or weed control at 75 ppm in assay [2] fell in the range of 0 to 25%; in assay [3] it was 51 to 75%.
For `Cc1ccc(COc2ncc(F)c(NN)n2)cc1` [Compound 538], the pest or weed control at 25 ppm in assay [1] (setting [4]) lay within 26 to 50%; in assay [1] (setting [6]), 51 to 75%; in assay [2], 0 to 25%; in assay [3], 26 to 50%. Moreover, the pest or weed control at 100 ppm was 51 to 75% in assay [1] (setting [5]) and 76 to 100% in assay [1] (setting [7]). Moreover, the pest or weed control at 75 ppm in assay [2] lay within 0 to 25%; in assay [3] it was 51 to 75%.
As for `Nc1nc(OCc2cc3ccccc3o2)ncc1F` [Compound 554], the pest or weed control at 25 ppm in assay [1] (setting [8]) fell in the range of 26 to 50%; in assay [1] (setting [10]), 26 to 50%; in assay [2], 0 to 25%; in assay [3], 76 to 100%. Besides, the pest or weed control at 100 ppm in assay [1] (setting [9]) and in assay [1] (setting [11]) was 76 to 100% throughout. The pest or weed control at 75 ppm in assay [2] lay in the range of 51 to 75%; in assay [3] it was 76 to 100%.
Turning to `Nc1nc(OC2CCCc3cccnc32)ncc1F` (centres unmarked) [Compound 560], the pest or weed control at 25 ppm in assay [1] (setting [8]), in assay [1] (setting [10]), in assay [2] and in assay [3] was 0 to 25% each time. In addition, the pest or weed control at 100 ppm was in the range of 26 to 50% in assay [1] (setting [9]) and 76 to 100% in assay [1] (setting [11]). In addition, the pest or weed control at 75 ppm in assay [2] was 26 to 50%; in assay [3] it was 76 to 100%.
